Results published in patent publication US20240228504A1, “SUBSTITUTED TRICYCLIC AMIDES, ANALOGUES THEREOF, AND METHODS USING SAME” (Arbutus Biopharma Corporation, priority 2020, published 2024).

tested on: HBV rcDNA in HepDE19 cells; test: HepDE19 assay with bDNA quantitation of HBV rcDNA; type: cell-based, hepatitis B virus; details: Hepatitis B virus, HepDE19, HepDE19 assay, inhibition of rcDNA formation, bDNA quantitation; read-out: DE-19bDNA EC50

Going from CN(C(=O)c1cc(F)c(Cl)c(F)c1)[C@@H]1COCc2[nH]c(=O)c3cc(F)c(F)cc3c21 [Compound 173, 4-Chloro-N-(8,9-difluoro-6-oxo-2,4,5,6-tetrahydro-1H-pyrano[3,4-c]isoquinolin-1-yl)-3,5-difluoro-N-methylbenzamide] to CN(C(=O)c1cc(F)c(C(F)F)c(F)c1)[C@@H]1COCc2[nH]c(=O)c3cc(F)c(F)cc3c21 [Compound 180, (S)-N-(8,9-Difluoro-6-oxo-1,4,5,6-tetrahydro-2H-pyrano[3,4-c]isoquinolin-1-yl)-4-(difluoromethyl)-3,5-difluoro-N-methylbenzamide], the EC50 rises from 10 nM to 160 nM (16-fold). The first is the more potent here.

CN(C(=O)c1cc2cc(F)c(F)cc2[nH]1)[C@@H]1COC(O)c2[nH]c(=O)c3cc(F)c(F)cc3c21 (stereo partly drawn) [Compound 187, N-((1S)-8,9-Difluoro-4-hydroxy-6-oxo-1,4,5,6-tetrahydro-2H-pyrano[3,4-c]isoquinolin-1-yl)-5,6-difluoro-N-methyl-1H-indole-2-carboxamide] and CN(C(=O)c1cc2cc(F)c(C(F)F)cc2[nH]1)[C@@H]1COCc2[nH]c(=O)c3cc(F)c(F)cc3c21 [Compound 212, (S)-N-(8,9-Difluoro-6-oxo-1,4,5,6-tetrahydro-2H-pyrano[3,4-c]isoquinolin-1-yl)-6-(difluoromethyl)-5-fluoro-N-methyl-1H-indole-2-carboxamide] are the same in EC50: 10 nM for the first, 10 nM for the second.

Going from CN(C(=O)c1cnn(C)c1)[C@@H]1COCc2[nH]c(=O)c3cc(F)c(F)cc3c21 [Compound 188, (S)-N-(8,9-Difluoro-6-oxo-1,4,5,6-tetrahydro-2H-pyrano[3,4-c]isoquinolin-1-yl)-N,1-dimethyl-1H-pyrazole-4-carboxamide] to CN(C(=O)c1cnn(C(C)(C)C)c1)[C@@H]1COCc2[nH]c(=O)c3cc(F)c(F)cc3c21 [Compound 196, (S)-1-(tert-Butyl)-N-(8,9-difluoro-6-oxo-1,4,5,6-tetrahydro-2H-pyrano[3,4-c]isoquinolin-1-yl)-N-methyl-1H-pyrazole-4-carboxamide], the EC50 falls from 18300 nM to 3100 nM (5.9-fold).

First: C=C(C(=O)N(C)[C@@H]1COCc2[nH]c(=O)c3cc(F)c(F)cc3c21)c1ccccc1 [Compound 189, (S)-N-(8,9-Difluoro-6-oxo-1,4,5,6-tetrahydro-2H-pyrano[3,4-c]isoquinolin-1-yl)-N-methyl-2-phenylacrylamide]
Second: CN(C(=O)C1Cc2ccccc2C1)[C@@H]1COCc2[nH]c(=O)c3cc(F)c(F)cc3c21 [Compound 195, (S)-N-(8,9-Difluoro-6-oxo-1,4,5,6-tetrahydro-2H-pyrano[3,4-c]isoquinolin-1-yl)-N-methyl-2,3-dihydro-1H-indene-2-carboxamide]
The EC50 of the first is 29-fold higher: 4400 nM for the first, 150 nM for the second. The second is the more potent here.

Compared with CN(C(=O)c1cc2cc(F)cnc2[nH]1)[C@@H]1COCc2[nH]c(=O)c3cc(F)c(F)cc3c21 [Compound 190, (S)-N-(8,9-Difluoro-6-oxo-1,4,5,6-tetrahydro-2H-pyrano[3,4-c]isoquinolin-1-yl)-5-fluoro-N-methyl-1H-pyrrolo[2,3-b]pyridine-2-carboxamide], CN(C(=O)c1cc2cc(Cl)cnc2[nH]1)[C@@H]1COCc2[nH]c(=O)c3cc(F)c(F)cc3c21 [Compound 191, (S)-5-Chloro-N-(8,9-difluoro-6-oxo-1,4,5,6-tetrahydro-2H-pyrano[3,4-c]isoquinolin-1-yl)-N-methyl-1H-pyrrolo[2,3-b]pyridine-2-carboxamide] is 2.8-fold lower in EC50: 330 nM for the first, 120 nM for the second.

Compared with CN(C(=O)c1cc2cc(Br)cnc2[nH]1)[C@@H]1COCc2[nH]c(=O)c3cc(F)c(F)cc3c21 [Compound 192, (S)-5-Bromo-N-(8,9-difluoro-6-oxo-1,4,5,6-tetrahydro-2H-pyrano[3,4-c]isoquinolin-1-yl)-N-methyl-1H-pyrrolo[2,3-b]pyridine-2-carboxamide], CN(C(=O)c1cc2cc(Br)ncc2[nH]1)[C@@H]1COCc2[nH]c(=O)c3cc(F)c(F)cc3c21 [Compound 213, (S)-5-Bromo-N-(8,9-difluoro-6-oxo-1,4,5,6-tetrahydro-2H-pyrano[3,4-c]isoquinolin-1-yl)-N-methyl-1H-pyrrolo[2,3-c]pyridine-2-carboxamide] is 3.2-fold lower in EC50: 260 nM for the first, 80 nM for the second.

First: CN(C(=O)c1c[nH]c(=O)c(C(F)(F)F)c1)[C@@H]1COCc2[nH]c(=O)c3cc(F)c(F)cc3c21 [Compound 193, (S)-N-(8,9-Difluoro-6-oxo-1,4,5,6-tetrahydro-2H-pyrano[3,4-c]isoquinolin-1-yl)-N-methyl-6-oxo-5-(trifluoromethyl)-1,6-dihydropyridine-3-carboxamide]
Second: CN(C(=O)c1c[nH]c(=O)c(Br)c1)[C@@H]1COCc2[nH]c(=O)c3cc(F)c(F)cc3c21 [Compound 205, (S)-5-Bromo-N-(8,9-difluoro-6-oxo-1,4,5,6-tetrahydro-2H-pyrano[3,4-c]isoquinolin-1-yl)-N-methyl-6-oxo-1,6-dihydropyridine-3-carboxamide]
The EC50 of the first is 4.9-fold lower: 3200 nM for the first, 15800 nM for the second.

Compared with CN(C(=O)c1csc(Br)c1)[C@@H]1COCc2[nH]c(=O)c3cc(F)c(F)cc3c21 [Compound 194, (S)-5-Bromo-N-(8,9-difluoro-6-oxo-1,4,5,6-tetrahydro-2H-pyrano[3,4-c]isoquinolin-1-yl)-N-methylthiophene-3-carboxamide], CN(C(=O)c1cc(Br)c[nH]1)[C@@H]1COCc2[nH]c(=O)c3cc(F)c(F)cc3c21 [Compound 198, (S)-4-Bromo-N-(8,9-difluoro-6-oxo-1,4,5,6-tetrahydro-2H-pyrano[3,4-c]isoquinolin-1-yl)-N-methyl-1H-pyrrole-2-carboxamide] is 3.1-fold higher in EC50: 70 nM for the first, 220 nM for the second.

Going from CN(C(=O)c1cnn(C(F)(F)F)c1)[C@@H]1COCc2[nH]c(=O)c3cc(F)c(F)cc3c21 [Compound 197, (S)-N-(8,9-Difluoro-6-oxo-1,4,5,6-tetrahydro-2H-pyrano[3,4-c]isoquinolin-1-yl)-N-methyl-1-(trifluoromethyl)-1H-pyrazole-4-carboxamide] to CN(C(=O)c1ccc(Cl)c(=O)[nH]1)[C@@H]1COCc2[nH]c(=O)c3cc(F)c(F)cc3c21 [Compound 201, (S)-5-Chloro-N-(8,9-difluoro-6-oxo-1,4,5,6-tetrahydro-2H-pyrano[3,4-c]isoquinolin-1-yl)-N-methyl-6-oxo-1,6-dihydropyridine-2-carboxamide], the EC50 rises from 440 nM to 10000 nM (23-fold).

Going from CN(C(=O)c1cc2cc(Cl)ncc2[nH]1)[C@@H]1COCc2[nH]c(=O)c3cc(F)c(F)cc3c21 [Compound 204, (S)-5-Chloro-N-(8,9-difluoro-6-oxo-1,4,5,6-tetrahydro-2H-pyrano[3,4-c]isoquinolin-1-yl)-N-methyl-1H-pyrrolo[2,3-c]pyridine-2-carboxamide] to CN(C(=O)c1cc2nc(Cl)ccc2[nH]1)[C@@H]1COCc2[nH]c(=O)c3cc(F)c(F)cc3c21 [Compound 206, (S)-5-Chloro-N-(8,9-difluoro-6-oxo-1,4,5,6-tetrahydro-2H-pyrano[3,4-c]isoquinolin-1-yl)-N-methyl-1H-pyrrolo[3,2-b]pyridine-2-carboxamide], the EC50 rises from 40 nM to 630 nM (16-fold). The first is the more potent here.

Work on CN(C(=O)C1(O)CCCCC1)[C@@H]1COCc2[nH]c(=O)c3cc(F)c(F)cc3c21 [Compound 211, (S)-N-(8,9-Difluoro-6-oxo-1,4,5,6-tetrahydro-2H-pyrano[3,4-c]isoquinolin-1-yl)-1-hydroxy-N-methylcyclohexane-1-carboxamide] yielded an EC50 of 7660 nM.
